ChEMBL document CHEMBL1828555, “Primary amino acid derivatives: substitution of the 4'-N'-benzylamide site in (R)-N'-benzyl 2-amino-3-methylbutanamide, (R)-N'-benzyl 2-amino-3,3-dimethylbutanamide, and (R)-N'-benzyl 2-amino-3-methoxypropionamide provides potent anticonvulsants with pain-attenuating properties” (J Med Chem, 2011)
Activity calls are given as the source filed them. No cut-off for these calls is given here.

Columns and labels:
Mus musculus [1] = assay: Anticonvulsant activity in ip dosed albino CF1 mouse assessed as protection against subcutaneous pentylenetetrazol-induced seizure; assay type: functional, organism-based
[2] = Toxicity in po dosed albino Sprague-Dawley rat assessed as behavioural toxicity; assay type: organism-based; settings: in vivo
Mus musculus [3] = assay: Anticonvulsant activity in ip dosed albino CF1 mouse assessed as time of peak effect for protection against 6 Hz psychomotor seizure; assay type: functional
Rattus norvegicus [4] = assay: Anticonvulsant activity in po dosed albino Sprague-Dawley rat assessed as time of peak effect for protection against maximal electroshock seizure; assay type: functional
Mus musculus [5] = assay: Analgesic activity in ip dosed albino CF1 mouse assessed as reduction of formalin-induced neuropathic pain after 30 mins; assay type: functional; settings: 0.5 h
[6] = Neurotoxicity in ip dosed albino CF1 mouse assessed as median neurological impairing dose after 30 mins; assay type: toxicity, organism-based; settings: in vivo
Mus musculus [7] = assay: Neurotoxicity in ip dosed albino CF1 mouse assessed as time of peak effect for median neurological impairing; assay type: toxicity, organism-based; settings: in vivo
Mus musculus [8] = assay: Analgesic activity in ip dosed albino CF1 mouse assessed as time of peak effect for reduction of formalin-induced neuropathic pain; assay type: functional
Mus musculus [9] = assay: Anticonvulsant activity in ip dosed albino CF1 mouse assessed as protection against maximal electroshock-induced seizure after 30 mins; assay type: functional; settings: 0.5 h
Rattus norvegicus [10] = assay: Toxicity in po dosed albino Sprague-Dawley rat assessed as time of peak effect for behavioural toxicity; assay type: organism-based; settings: in vivo
Mus musculus [11] = assay: Protective index, ratio of TD50 for ip dosed albino CF1 mouse to ED50 for ip dosed albino CF1 mouse by maximal electroshock test; assay type: functional
Mus musculus [12] = assay: Anticonvulsant activity in ip dosed albino CF1 mouse assessed as protection against 6 Hz psychomotor seizure after 30 mins; assay type: functional; settings: 0.5 h
Rattus norvegicus [13] = assay: Anticonvulsant activity in po dosed albino Sprague-Dawley rat assessed as protection against maximal electroshock seizure; assay type: functional
Mus musculus [14] = assay: Anticonvulsant activity in ip dosed albino CF1 mouse assessed as time of peak effect for protection against maximal electroshock-induced seizure; assay type: functional
Rattus norvegicus [15] = assay: Protective index, ratio of TD50 for po dosed albino Sprague-Dawley rat to ED50 for po dosed albino Sprague-Dawley rat by maximal electroshock test; assay type: functional
Mus musculus [16] = assay: Analgesic activity in NMRI mouse assessed as reduction in formalin-induced neuropathic pain at 12 mg/kg, ip; assay type: functional, organism-based; parameters: dose 12 mg/kg
Mus musculus [17] = assay: Analgesic activity in NMRI mouse assessed as reduction in formalin-induced neuropathic pain at 37 mg/kg, ip; assay type: functional; parameters: scale not given: the % may be the effect or the level left; settings: route intraperitoneal
Mus musculus [18] = assay: Anticonvulsant activity in ip dosed 6 Hz psychomotor seizure model of NMRI mouse assessed as protection against seizure after 30 minutes; assay type: functional; settings: 0.5 h
Mus musculus [19] = assay: Anticonvulsant activity in ip dosed NMRI mouse assessed as protection against maximal electroshock seizure after 30 mins; assay type: functional; settings: 0.5 h
[20] = Neurotoxicity in ip dosed NMRI mouse assessed as median neurological impairing dose after 30 mins by rotarod test; assay type: toxicity, organism-based; settings: in vivo
Mus musculus [21] = assay: Protective index, ratio of TD50 for ip dosed NMRI mouse to ED50 for ip dosed NMRI mouse by maximal electroshock test; assay type: functional
Mus musculus [22] = assay: Anticonvulsant activity in ip dosed 6 Hz psychomotor seizure model of NMRI mouse assessed as minimal active dose after 30 mins; assay type: functional
Mus musculus [23] = assay: Analgesic activity in ip dosed NMRI mouse assessed as reduction in formalin-induced neuropathic pain after 30 mins; assay type: functional; settings: 0.5 h
Mus musculus [24] = assay: Analgesic activity in NMRI mouse assessed as reduction in formalin-induced neuropathic pain at 110 mg/kg, ip; assay type: functional; parameters: scale not given: the % may be the effect or the level left; settings: route intraperitoneal
Mus musculus [25] = assay: Anticonvulsant activity in ip dosed maximal electroshock seizure model of NMRI mouse assessed as minimal active dose after 30 mins; assay type: functional
Mus musculus [26] = assay: Protective index, ratio of TD50 for ip dosed NMRI mouse to ED50 for ip dosed formalin-induced neuropathic pain model of NMRI mouse; assay type: functional

SMILES | Activity (Mus musculus [1]) | TD50 [2] [mg/kg] | Time (Mus musculus [3]) [h] | Time (Rattus norvegicus [4]) [h] | ED50 (Mus musculus [5]) [mg/kg] | TD50 at 0.5 h [6] [mg/kg] | Time (Mus musculus [7]) [h] | Time (Mus musculus [8]) [h] | ED50 (Mus musculus [9]) [mg/kg] | Ratio TD50/ED50 (Mus musculus [11]) | ED50 (Mus musculus [12]) [mg/kg] | ED50 (Rattus norvegicus [13]) [mg/kg] | Time (Mus musculus [14]) [h] | Ratio TD50/ED50 (Rattus norvegicus [15]) | ED50 (Mus musculus [18]) [mg/kg] | ED50 (Mus musculus [19]) [mg/kg] | TD50 at 0.5 h [20] [mg/kg] | Ratio TD50/ED50 (Mus musculus [21]) | ED50 (Mus musculus [23]) [mg/kg] | further results
CC(C)(C)[C@@H](N)C(=O)NCc1ccc(Cl)cc1 | inactive | > 30 | 0.25 | 0.25 | 25 | 84 | 0.5 | 0.25 | 25 | 3.4 | < 100 | 30 | 0.25 |  |  |  |  |  |  | Time (Rattus norvegicus [10]): 0.25 h
CC(C)[C@@H](N)C(=O)NCc1ccc(F)cc1 | inactive | > 500 | 0.25 | 0.5 | 32 | 97 | 0.25 | 0.25 | 32 | 3 | 63 | 21 | 0.25 | >24 |  |  |  |  |  | 
COC[C@@H](N)C(=O)NCc1ccc(COc2cccc(F)c2)cc1 | inactive | > 500 |  | 0.5 |  | 30 | 0.5 |  | 10 |  | < 30 | 12 | 0.5 | >42 | 58 | 8.9 | 46 | 5.4 |  | Activity (Mus musculus [16]): inactive; Activity (Mus musculus [17]): 94%
COC[C@@H](N)C(=O)NCc1ccc(-c2ccccc2)cc1.Cl | inactive |  |  |  |  |  |  |  |  |  |  |  |  |  |  | 15 |  |  | > 33 | MAC (Mus musculus [22]): 59 mg/kg
CC(C)[C@@H](N)C(=O)NCc1ccc(Cl)cc1 | inactive |  | 0.25 |  | 22 | 74 | 0.25 | 0.25 | 22 | 3.4 | 50 |  | 0.25 |  |  |  |  |  |  | 
CC(C)[C@@H](N)C(=O)NCc1ccc(OCc2cccc(F)c2)cc1 | inactive |  |  |  |  |  |  |  |  |  |  |  |  |  | > 110 | 12 |  |  |  | Activity (Mus musculus [24]): 80%
CC(C)[C@@H](N)C(=O)NCc1ccccc1 |  | > 500 | 0.25 | 0.25 | 15 | 70 | 0.25 | 0.25 | 15 | 4.8 | < 100 | 11 | 0.25 | >45 | 74 |  | 47 | 2.9 | 20 | MAC (Mus musculus [25]): 16 mg/kg
CC(C)[C@@H](N)C(=O)NCc1ccc(OC(F)(F)F)cc1 | inactive | > 500 | 0.5 | 1 | 16 | 84 | 0.25 | 0.25 | 16 | 5.3 | 28 | 18 | 0.25 | >27 |  |  |  |  |  | 
COC[C@@H](N)C(=O)NCc1ccc(Br)cc1.Cl | inactive |  |  |  |  |  |  |  |  |  |  |  |  |  | > 180 | 31 | 115 | 3.7 | 70 | Ratio TD50/ED50 (Mus musculus [26]): 1.6
